Key:
[1] = molecular target: T1, Gamma-aminobutyric acid receptor subunit alpha-5 (Homo sapiens, UniProt P31644)
T1 sequence (P31644 whole entry): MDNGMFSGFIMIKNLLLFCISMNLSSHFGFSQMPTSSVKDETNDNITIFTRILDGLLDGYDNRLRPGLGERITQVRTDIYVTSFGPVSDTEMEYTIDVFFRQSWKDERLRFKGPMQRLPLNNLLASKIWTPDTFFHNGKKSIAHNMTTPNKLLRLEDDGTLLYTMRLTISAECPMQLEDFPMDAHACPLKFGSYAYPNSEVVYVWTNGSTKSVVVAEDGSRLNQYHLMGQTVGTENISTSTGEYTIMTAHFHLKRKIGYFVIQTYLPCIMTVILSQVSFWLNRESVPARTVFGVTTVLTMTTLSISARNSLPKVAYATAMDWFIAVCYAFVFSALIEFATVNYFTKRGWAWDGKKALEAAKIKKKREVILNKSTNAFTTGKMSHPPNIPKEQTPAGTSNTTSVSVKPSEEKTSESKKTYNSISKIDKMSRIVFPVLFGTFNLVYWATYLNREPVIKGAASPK

[2] = molecular target: T2, Gamma-aminobutyric acid receptor subunit alpha-2 (Homo sapiens, UniProt P47869)
T2 sequence (P47869 whole entry): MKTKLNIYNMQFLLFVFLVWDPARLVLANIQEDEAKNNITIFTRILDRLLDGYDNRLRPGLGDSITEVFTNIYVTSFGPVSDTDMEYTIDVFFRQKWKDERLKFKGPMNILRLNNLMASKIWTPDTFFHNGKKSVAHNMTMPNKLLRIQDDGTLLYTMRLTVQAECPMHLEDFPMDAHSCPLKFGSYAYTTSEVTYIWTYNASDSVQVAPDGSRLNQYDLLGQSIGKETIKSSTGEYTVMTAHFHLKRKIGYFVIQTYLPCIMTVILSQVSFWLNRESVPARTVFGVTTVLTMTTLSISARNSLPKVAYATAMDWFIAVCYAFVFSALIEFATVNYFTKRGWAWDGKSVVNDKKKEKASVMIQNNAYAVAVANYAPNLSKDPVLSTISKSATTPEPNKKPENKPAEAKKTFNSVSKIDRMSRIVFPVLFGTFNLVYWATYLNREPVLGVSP

[3] = molecular target: T3, Gamma-aminobutyric acid receptor subunit alpha-3 (Homo sapiens, UniProt P34903)
T3 sequence (P34903 whole entry): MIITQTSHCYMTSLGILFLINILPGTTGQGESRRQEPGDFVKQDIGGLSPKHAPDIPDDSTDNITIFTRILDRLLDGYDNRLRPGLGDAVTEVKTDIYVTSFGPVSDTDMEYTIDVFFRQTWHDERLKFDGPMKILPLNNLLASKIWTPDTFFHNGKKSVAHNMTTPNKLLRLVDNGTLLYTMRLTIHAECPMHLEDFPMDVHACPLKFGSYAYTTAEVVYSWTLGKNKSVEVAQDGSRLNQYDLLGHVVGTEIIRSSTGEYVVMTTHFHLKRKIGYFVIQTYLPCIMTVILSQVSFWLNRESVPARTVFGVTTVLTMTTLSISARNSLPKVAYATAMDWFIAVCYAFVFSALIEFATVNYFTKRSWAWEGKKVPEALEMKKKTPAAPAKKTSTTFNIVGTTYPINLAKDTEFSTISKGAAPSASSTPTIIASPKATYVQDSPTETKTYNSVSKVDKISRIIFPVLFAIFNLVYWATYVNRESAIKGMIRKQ

[4] = molecular target: T4, Gamma-aminobutyric acid receptor subunit alpha-1 (Homo sapiens, UniProt P14867)
T4 sequence (P14867 whole entry): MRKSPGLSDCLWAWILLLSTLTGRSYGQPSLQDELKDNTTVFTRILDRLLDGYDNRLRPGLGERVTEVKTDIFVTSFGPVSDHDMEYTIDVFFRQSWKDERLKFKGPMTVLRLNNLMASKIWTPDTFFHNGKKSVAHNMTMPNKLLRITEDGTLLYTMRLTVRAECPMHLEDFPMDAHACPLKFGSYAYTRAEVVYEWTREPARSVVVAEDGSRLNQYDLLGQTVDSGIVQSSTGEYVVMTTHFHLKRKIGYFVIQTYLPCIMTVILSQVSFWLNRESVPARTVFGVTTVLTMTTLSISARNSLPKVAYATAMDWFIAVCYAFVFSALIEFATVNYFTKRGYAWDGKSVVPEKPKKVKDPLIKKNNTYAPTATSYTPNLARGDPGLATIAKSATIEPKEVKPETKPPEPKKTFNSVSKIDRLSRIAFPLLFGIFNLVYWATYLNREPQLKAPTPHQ

Structure (SMILES)	Ki [1]	Ki [2]	Ki [3]	Ki [4]
Cc1nnc2ccc(-c3cccc(C(F)(F)F)c3)nn12	1150 nM	2900 nM	3140 nM	290 nM
COC(=O)c1cc2c(cn1)[nH]c1ccccc12	76.4 nM	6.5 nM	9.2 nM	2.2 nM
COCc1c(C(=O)OC(C)C)ncc2[nH]c3ccc(OCc4ccccc4)cc3c12	8.4 nM	4.4 nM	7.1 nM	–
CC(C)(C)OC(=O)c1ncn2c1C1CCCN1C(=O)c1c(Br)cccc1-2 (stereo not given) [8-Bromo-7-oxo-3b,4,5,6-tetrahydro-7H-2,6a,11b-triaza-benzo[g]cyclopenta[e]azulene-3-carboxylic acid tert-butyl ester]	2.4 nM	1.2 nM	1.3 nM	1.2 nM
Cc1ccc(-c2nc3ccc(C)cn3c2CC(=O)N(C)C)cc1 [Ambien]	> 10000 nM	–	–	–
CC(C)c1nc(-c2ncn3c2CN(C)C(=O)c2c(Cl)cccc2-3)no1 [FG 8205]	6.4 nM	3.7 nM	6.4 nM	2.3 nM
Cc1nnc2n1-c1ccc(Cl)cc1C(c1ccccc1Cl)=NC2 [Halcion]	–	–	3 nM	–
CCOC(=O)c1ncn2c1CN(C)C(=O)c1cc(N=[N+]=[N-])ccc1-2 [RO-154513]	0.7 nM	10.4 nM	7.8 nM	10 nM

From BindingDB's records for PubMed 8391122 (Merck Sharp & Dohme Research Laboratories, 1993)
